The source of these data is ChEMBL document CHEMBL1201862, “PubChem BioAssay data set” (2004).

Assay in all cases: NCI tumour cell line growth inhibition, 48 h
Assay [1] relates to NCI/ADR-RES.
For assay [2], the system named is NCI-H226.
The test system of assay [3] is ACHN.
In assay [4] the test system is COLO 205.
The subject of assay [5] is 786-0.
Assay [6] concerns HOP-92.
In assay [7] the test system is OVCAR-8.
Assay [8] deals with HL-60.
Assay [9] has as its system SW-620.
The test system of assay [10] is SF-539.
In assay [11] the test system is HOP-62.
The subject of assay [12] is SK-MEL-5.
For assay [13], the system named is MDA-MB-435.
For assay [14], the system named is PC-3.
The subject of assay [15] is SNB-19.
Assay [16] has as its system SNB-75.
In assay [17] the test system is UO-31.
The subject of assay [18] is U-251.
Assay [19] concerns NCI-H522.

Molecules are shown by their SMILES.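 Compound exposure: 48 hours, 5 concentrations, 96-well plates. At the GI50, growth is halved.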 Activity calls are given as the source filed them. Cut-off read from the data, not from the text of the source: active = GI50 up to about 1.1 µM and inactive = higher.

As for `CN(C)c1ccc(/C=C/c2ccnc3ccccc23)cc1N`, the GI50 in [1] was 13.1 µM (inactive); in assay [2] it was 11.4 µM (inactive); in [3] it was 10.3 µM (inactive); in assay [4], 2.53 µM (inactive); in assay [5] it was 12.6 µM (inactive); in [6] it was 0.337 µM (active). Moreover, the GI50 in [7] is 8.85 µM (inactive); in assay [8], 3.52 µM (inactive); in [9], 12.4 µM (inactive); in assay [10], 14.7 µM (inactive); in assay [11], 13.8 µM (inactive); in assay [12] it was 2.82 µM (inactive). In addition, the GI50 is 2.55 µM (inactive) in assay [13]; 4.35 µM (inactive) in [14]; 14.4 µM (inactive) in [15]; 6.5 µM (inactive) in assay [16]; 7.55 µM (inactive) in [17]; 9.66 µM (inactive) in assay [18].

For the molecule `COC(=O)c1ccccc1Nc1ccccc1C(=O)OC`, the GI50 in [1] was > 100 µM (inactive); in [2] it was 23.7 µM (inactive); in [3], > 100 µM (inactive); in assay [4] it was > 100 µM (inactive); in assay [5], 53.5 µM (inactive); in assay [6] it was 23.4 µM (inactive). In addition, the GI50 in assay [7] is 89.7 µM (inactive); in assay [8] it was > 100 µM (inactive); in [9], > 100 µM (inactive); in assay [10] it was 83 µM (inactive); in [11] it was 59.6 µM (inactive); in [12], 54.7 µM (inactive). Besides, the GI50 was > 100 µM (inactive) in assay [13]; 39.5 µM (inactive) in assay [14]; 32.1 µM (inactive) in assay [19]; > 100 µM (inactive) in assay [15]; 39.3 µM (inactive) in assay [16]; 83.6 µM (inactive) in assay [18].

Take `N/N=C1/C(=N/O)CCc2nonc21`: the GI50 in assay [1] is > 100 µM (inactive); in [2], 24.6 µM (inactive); in [3], > 100 µM (inactive); in assay [4] it was > 100 µM (inactive); in assay [5] it was > 100 µM (inactive); in assay [6] it was > 100 µM (inactive). The GI50 in assay [7], in [8], in assay [9], in assay [10], in assay [11] and in assay [12] was > 100 µM (inactive) throughout. Moreover, the GI50 in assay [13] was > 100 µM (inactive); in [14], > 100 µM (inactive); in assay [15], 84.1 µM (inactive); in assay [16], > 100 µM (inactive); in assay [17] it was 28.6 µM (inactive); in [18], > 100 µM (inactive).

As for `Nc1cccc2nnccc12`, the GI50 in assay [1], in assay [2], in [3], in [4], in assay [5] and in assay [6] was > 100 µM (inactive) in each case. In addition, the GI50 in [7], in [8], in [9], in assay [10], in [12] and in [13] was > 100 µM (inactive) each time. The GI50 in assay [14] is > 100 µM (inactive); in assay [19], 19 µM (inactive); in assay [15], > 100 µM (inactive); in assay [16] it was > 100 µM (inactive); in [17] it was > 100 µM (inactive); in [18] it was > 100 µM (inactive).
